Assay results taken from US20060223708A1, “Substituted N-[pyrimidin-2-ylmethyl]carboxamides and their use as herbicides and plant growth regulators” (Bayer CropScience GmbH, priority 2005, published 2006).

Assays:
[1] = test system: Setaria viridis; assay: Pre-emergence effect on weeds; type: in vivo; details: dosage 1000 g of a.i./ha, scored visually after 3 to 4 weeks
Text: (§1) 1. Pre-Emergence Effect on Weeds
(§2) Seeds of monocotyledonous and dicotyledonous weed plants are placed into sandy loam soil in cardboard pots and covered with soil. The compounds of the invention, formulated as wettable powders or emulsion concentrates, are then applied to the surface of the soil cover in the form of aqueous suspensions or emulsions at an application rate of 600 to 800 l of water/ha (converted), in various dosages. After the treatment, the pots are placed in a greenhouse and kept under good growth conditions for the weeds. After the test plants have emerged, the damage to the plants or the negative effect on the emergence was scored visually after a test period of 3 to 4 weeks by comparison with untreated controls. Here, the compounds according to the invention have excellent activity against a broad spectrum of economically important monocotyledonous and dicotyledonous harmful plants, see Tables A to G.

[2] = test system: Lolium multiflorum; assay: Pre-emergence effect on weeds; type: in vivo; details: dosage 1000 g of a.i./ha, scored visually after 3 to 4 weeks
Text: as §1, §2

[3] = test system: Amaranthus retroflexus; assay: Pre-emergence effect on weeds; type: in vivo; details: dosage 1000 g of a.i./ha, scored visually after 3 to 4 weeks
Text: as §1, §2

[4] = test system: Stellaria media; assay: Pre-emergence effect on weeds; type: in vivo; details: dosage 1000 g of a.i./ha, scored visually after 3 to 4 weeks
Text: as §1, §2

[5] = test system: Cyperus iria; assay: Herbicidal post-emergence effect on harmful plants; type: in vivo; details: dosage 1000 g of a.i./ha, rated after 3 to 4 weeks
Experimental: (§3) 2. Herbicidal Post-Emergence Effect on Harmful Plants
(§4) Seeds of monocotyledonous and dicotyledonous harmful plants are placed in sandy loam soil in cardboard pots, covered with soil and cultivated in a greenhouse under good growth conditions. Two to three weeks after sowing, the test plants are treated at the three-leaf stage. The compounds according to the invention, formulated in the form of wettable powders or emulsion concentrates, are sprayed onto the surface of the green parts of the plants at an application rate of 600 to 800 l of water/ha (converted), in various dosages. After the test plants have remained in the greenhouse under optimum growth conditions for 3 to 4 weeks, the effect of the compounds is rated. Here, the compounds according to the invention have excellent activity against a broad spectrum of economically important monocotyledonous and dicotyledonous harmful plants, see Tables H to J.

[6] = test system: Setaria viridis; assay: Herbicidal post-emergence effect on harmful plants; type: in vivo; details: dosage 1000 g of a.i./ha, rated after 3 to 4 weeks
Experimental: as §3, §4

[7] = test system: Echinochloa crus galli; assay: Herbicidal post-emergence effect on harmful plants; type: in vivo; details: dosage 1000 g of a.i./ha, rated after 3 to 4 weeks
Experimental: as §3, §4

[8] = test system: Amaranthus retroflexus; assay: Herbicidal post-emergence effect on harmful plants; type: in vivo; details: dosage 1000 g of a.i./ha, rated after 3 to 4 weeks
Experimental: as §3, §4

[9] = Pre-emergence effect on weeds; type: in vivo, Sinapis arvensis; details: dosage 1000 g of a.i./ha, scored visually after 3 to 4 weeks
Text: as §1, §2

[10] = Pre-emergence effect on weeds; type: in vivo, Avena fatua; details: dosage 1000 g of a.i./ha, scored visually after 3 to 4 weeks
Text: as §1, §2

[11] = test system: Lolium multiflorum; assay: Herbicidal post-emergence effect on harmful plants; type: in vivo; details: dosage 1000 g of a.i./ha, rated after 3 to 4 weeks
Experimental: as §3, §4

| Structure (SMILES) | Herbicidal effect SETVI [1] [%] | Herbicidal effect LOLMU [2] [%] | Herbicidal effect AMARE [3] [%] | Herbicidal effect STEME [4] [%] | Herbicidal effect CYPIR [5] [%] | Herbicidal effect SETVI [6] [%] | Herbicidal effect ECHCG [7] [%] | Herbicidal effect AMARE [8] [%] | Herbicidal effect SINAL [9] [%] | Herbicidal effect AVESA [10] [%] | Herbicidal effect LOLMU [11] [%] |
| --- | --- | --- | --- | --- | --- | --- | --- | --- | --- | --- | --- |
| Cc1cc(Oc2cccc(C(F)(F)F)c2)nc(CNC(=O)C2CC2)n1 [Compound 1-206, N-[(4-methyl-6-{(3-trifluoromethyl)phenoxy}pyrimidin-2-yl)methyl]cyclopropanecarboxamide] | 100 | 100 | 100 | 100 |  |  |  |  |  |  |  |
| Cc1cc(Oc2cccc(C(F)(F)F)c2)nc(CNC(=O)C2CCC2)n1 [Compound 1-505] | 100 | 100 | 100 | 100 |  |  |  |  |  |  |  |
| Cc1cc(Oc2csc(C(F)(F)F)c2)nc(CNC(=O)C2CC2)n1 [Compound 2-205] | 100 |  | 100 | 100 | 90 | 90 | 90 | 90 | 90 |  |  |
| CCc1cc(Oc2csc(C(F)(F)F)c2)nc(CNC(=O)C2CC2)n1 [Compound 2-304] | 100 |  | 100 | 100 |  |  |  |  | 100 |  |  |
| CCc1cc(Oc2ccnc(C(F)(F)F)c2)nc(CNC(=O)C2CC2)n1 [Compound 3-306, N-[(4-ethyl-6-{[2-(trifluoromethyl)pyridin-4-yl]oxy}pyrimidin-2-yl)methyl]cyclopropanecarboxamide] | 100 |  | 100 |  | 100 |  | 90 | 90 | 100 | 100 | 90 |
| Cc1cc(Oc2cc(C(F)(F)F)nn2C)nc(CNC(=O)C2CC2)n1 [Compound 5-206] | 100 | 100 |  | 100 | 100 |  | 100 | 90 | 100 |  | 90 |
| CCc1cc(Oc2cc(C(F)(F)F)nn2C)nc(CNC(=O)C(F)(F)F)n1 [Compound 5-319] | 100 | 100 |  | 100 |  |  |  |  | 100 |  |  |
